# Source: patent US20220387365A1, “TUCARESOL DERIVATIVES AND USES THEREOF” (BeyondSpring Pharmaceuticals, Inc., priority 2019, published 2022)
# “And” between values parts separate entries of the source, which are not always exact repeats. Identical values can stand only once.
# Test: Pharmacokinetics of tucaresol after a single dose in healthy subjects
# [1] = plasma, single dose 400 mg, single subjects
# [2] = plasma, single dose 800 mg, single subjects
# [3] = plasma, single dose 1200 mg, single subjects
# [4] = plasma, single dose 2000 mg, single subjects
# [5] = plasma, single dose 2800 mg, single subjects
# [6] = plasma, single dose 3600 mg, single subjects
structure (smiles),measurement,setting,value
O=Cc1c(O)cccc1OCc1ccc(C(=O)O)cc1 [Tucaresol],half-life,"human, in vivo, 2000 mg",222 h
same,Tmax,"human, in vivo, 2800 mg",7.5 h
same,half-life,"human, in vivo, 2800 mg",223 h
same,Cmax,"human, plasma, 200 mg, Cmax, single dose 200 mg, single subjects",9.9 µg/mL
same,Tmax,"human, plasma, 200 mg, tmax, single dose 200 mg, single subjects",5 h
same,AUC,"human, plasma, 400 mg, AUC, single dose 400 mg, single subjects",2830 µg·h/mL
same,Cmax,"human, plasma, 400 mg, Cmax, single dose 400 mg, single subjects",16.6 µg/mL
same,half-life,"human, plasma, 400 mg, t1/2,z, single dose 400 mg, single subjects",133 h
same,Tmax,"human, plasma, 400 mg, tmax, single dose 400 mg, single subjects",4.03 h
same,AUC,"human, plasma, 800 mg, AUC, single dose 800 mg, single subjects",4890 µg·h/mL
same,Cmax,"human, plasma, 800 mg, Cmax, single dose 800 mg, single subjects",28.3 µg/mL
same,half-life,"human, plasma, 800 mg, t1/2,z, single dose 800 mg, single subjects",134 h
same,Tmax,"human, plasma, 800 mg, tmax, single dose 800 mg, single subjects",4 h
same,AUC,"human, plasma, 1200 mg, AUC, Mean, single dose 1200 mg",8860 µg·h/mL
same,Cmax,"human, plasma, 1200 mg, Cmax, Mean, single dose 1200 mg",38.4 µg/mL
same,Cmax,"human, plasma, 1200 mg, Cmax, single dose 1200 mg, single subjects",40.4 µg/mL
same,half-life,"human, plasma, 1200 mg, t1/2,z, Mean, single dose 1200 mg",195 h
same,Tmax,"human, plasma, 1200 mg, tmax, Mean, single dose 1200 mg",6.5 h
same,Tmax,"human, plasma, 1200 mg, tmax, single dose 1200 mg, single subjects",8 h
same,AUC,"human, plasma, 2000 mg, AUC, Mean, single dose 2000 mg",14800 µg·h/mL
same,AUC,"human, plasma, 2000 mg, AUC, single dose 2000 mg, single subjects",16300 µg·h/mL
same,Cmax,"human, plasma, 2000 mg, Cmax, Mean, single dose 2000 mg",58.6 µg/mL
same,Cmax,"human, plasma, 2000 mg, Cmax, single dose 2000 mg, single subjects",60.8 µg/mL
same,half-life,"human, plasma, 2000 mg, t1/2,z, Mean, single dose 2000 mg",229 h
same,half-life,"human, plasma, 2000 mg, t1/2,z, single dose 2000 mg, single subjects",278 h
same,Tmax,"human, plasma, 2000 mg, tmax, Mean, single dose 2000 mg",5.5 h
same,Tmax,"human, plasma, 2000 mg, tmax, single dose 2000 mg, single subjects",6 h
same,AUC,"human, plasma, 2800 mg, AUC, Mean, single dose 2800 mg",16900 µg·h/mL
same,AUC,"human, plasma, 2800 mg, AUC, single dose 2800 mg, single subjects",12900 µg·h/mL
same,Cmax,"human, plasma, 2800 mg, Cmax, Mean, single dose 2800 mg",73.7 µg/mL
same,Cmax,"human, plasma, 2800 mg, Cmax, single dose 2800 mg, single subjects",56.6 µg/mL
same,half-life,"human, plasma, 2800 mg, t1/2,z, single dose 2800 mg, single subjects",232 h
same,Tmax,"human, plasma, 2800 mg, tmax, single dose 2800 mg, single subjects",6 h
same,AUC,"human, plasma, 3600 mg, AUC, Mean, single dose 3600 mg",26600 µg·h/mL
same,AUC,"human, plasma, 3600 mg, AUC, single dose 3600 mg, single subjects",25400 µg·h/mL
same,Cmax,"human, plasma, 3600 mg, Cmax, Mean, single dose 3600 mg",95.8 µg/mL
same,Cmax,"human, plasma, 3600 mg, Cmax, single dose 3600 mg, single subjects",81.7 µg/mL
same,half-life,"human, plasma, 3600 mg, t1/2,z, Mean, single dose 3600 mg",289 h
same,half-life,"human, plasma, 3600 mg, t1/2,z, single dose 3600 mg, single subjects",291 h
same,Tmax,"human, plasma, 3600 mg, tmax, Mean, single dose 3600 mg",10 h
same,Tmax,"human, plasma, 3600 mg, tmax, single dose 3600 mg, single subjects",6.08 h
same,Cmax,"plasma, single dose 200 mg, single subjects",11.1 µg/mL
same,AUC,[1],3562 µg·h/mL
same,CL0,[1],2.35 mL/min and 1.86 mL/min
same,Cmax,[1],19.6 µg/mL
same,Tmax,[1],3.00 h
same,"t1/2,z",[1],190 h
same,AUC,[2],5759 µg·h/mL
same,CL0,[2],2.72 mL/min and 2.31 mL/min
same,Cmax,[2],36.5 µg/mL
same,Tmax,[2],4.08 h
same,"t1/2,z",[2],126 h
same,"CL0, Mean","plasma, single dose 1200 mg",2.40 mL/min
same,AUC,[3],12103 µg·h/mL and 9180 µg·h/mL and 5987 µg·h/mL and 8161 µg·h/mL
same,CL0,[3],1.65 mL/min and 2.17 mL/min and 3.33 mL/min and 2.44 mL/min
same,Cmax,[3],40.1 µg/mL and 39.3 µg/mL and 33.7 µg/mL
same,"t1/2,z",[3],252 h and 192 h and 123 h and 215 h
same,"CL0, Mean","plasma, single dose 2000 mg",2.27 mL/min
same,AUC,[4],16487 µg·h/mL and 14010 µg·h/mL and 12455 µg·h/mL
same,CL0,[4],2.04 mL/min and 2.01 mL/min and 2.37 mL/min and 2.67 mL/min
same,Cmax,[4],59.3 µg/mL and 57.1 µg/mL
same,"t1/2,z",[4],207 h and 209 h
same,"CL0, Mean","plasma, single dose 2800 mg",2.85 mL/min
same,AUC,[5],20871 µg·h/mL and 15635 µg·h/mL and 18018 µg·h/mL
same,CL0,[5],3.61 mL/min and 2.23 mL/min and 2.97 mL/min and 2.58 mL/min
same,Cmax,[5],87.7 µg/mL and 91.4 µg/mL and 59.3 µg/mL
same,Tmax,[5],12.00 h
same,"t1/2,z",[5],240 h and 178 h and 241 h
same,"CL0, Mean","plasma, single dose 3600 mg",2.26 mL/min
same,AUC,[6],27818 µg·h/mL and 24131 µg·h/mL and 29116 µg·h/mL
same,CL0,[6],2.36 mL/min and 2.15 mL/min and 2.48 mL/min and 2.05 mL/min
same,Cmax,[6],86.3 µg/mL and 80.3 µg/mL and 134.7 µg/mL
same,"t1/2,z",[6],329 h and 265 h and 268 h
